Legend:
B-16 melanoma [1] = test: Melanin synthesis inhibitory activity in B-16 melanoma; type: cell-based, mice; conditions: Mus musculus, B16, DMEM with a-MSH and theophylline, read-out: IC50 melanin synthesis inhibition
Method: To identify the melanin synthesis inhibitory activities of the chalcone derivatives of the present invention, whitening effects were measured using B-16 melanoma. 2 ml of B-16 melanoma, derived from black mice, was added to the respective wells in concentration of 2×10^4 cells/well on a 6 well plate using DMEM with 10% FBS and cultivated under the conditions of 5% CO2 and 37° C. for twenty four hours. Media were removed after the cultivation and the DMEM used was replaced with DMEM having 10% FBS, 0.2 mM a-MSH and 2 mM theophylline. Subsequently, appropriate amounts of the chalcone compounds of Examples 2 to 6, 8, 13, 14, 17 and 18 were diluted with the same media and added thereto, respectively, to be cultivated under the conditions of 5% CO2 and 37° C. until the cells grew above 80%. The media were removed after the cultivation and the resultant compounds were washed with PBS and processed with […] to collect cell pellets. Collected pellets were moved to 1.5 ml of Eppendorf tubes to be centrifuged at […] for ten minutes. Then, the pellets in which supernatants were removed were dried in an incubator of 60° C. for twenty four hours. Subsequently, 1N NaOH was added thereto to dissolve melanins in the cells. Dissolved melanins are diluted with appropriate amounts of PBS to measure absorbance at 490 nm, thus obtaining melanin inhibitory rates via Equation 1 above (T. Mosmann, J. Immunol. Methods, 1983, 65, 55; P. R. Gorden, J. Invest. Dermatol., 1989, 92, 565). As a comparative example, the same experiment was carried out using albutin.

α-amylase = α-amylase inhibitory activity via analysis of reducing sugars; type: biochemical; conditions: 1% starch substrate, DNS reagent, pH 4.5, 37° C., twenty minutes
Method: (§1) α-amylase, a kind of glycosidase enzymes, was used to identify glycosidase inhibitory activities of the chalcone derivatives of the present invention. Using 1% starch as substrate, α-amylase activities were measured by measuring the amounts in that α-amylases hydrolyzed the substrates after adding DNS (1% dinitrosalicylic acid, 12% potassium sodium tartrate in 0.4 M NaOH), a color reagent (Bioorg. Med. Chem. Lett., 2002, 12, 2335-2339). 1% starch as substrate was dissolved in acetate buffer (0.05 M, pH 4.5) in test tubes. After preprocessing at 37° C. for ten minutes, the resultant solutions were quantified as 100 μl in tubes. α-amylases of 0.25 unit/ml, prepared with the acetate buffer, were quantified as 100 μl. Subsequently, the chalcone derivatives prepared in Examples 2, 5, 6, 8, 9, 10, 11 and 12 in accordance with the present invention were dissolved in 50% DMSO solvent and quantified as 50 μl, respectively. After reacting the samples quantified at 37° C. for twenty minutes, 300 μl of DNS, the color reagent, were added thereto. Next, the resultant solutions were reacted in boiled water for ten minutes and cooled to measure absorbance at 540 nm, thus obtaining amylase inhibitory rates via equation 1 above. Measured IC50 values of the chalcone derivatives prepared in Examples 2, 5, 6, 8, 9, 10, 11 and 12 for α-amylases were depicted in table 3.

β-amylase = β-amylase inhibitory activity via analysis of reducing sugars; type: biochemical; conditions: 1% starch substrate, DNS reagent, same manner as α-amylase test
Method: as §1
β-amylase inhibitory activities were measured in the same manner as Experimental example 2 except for using β-amylases as glycosidase and the IC50 values were depicted in Table 3 above.

B-16 melanoma [2] = test: Cytotoxicity in B-16 melanoma; type: cell-based, mice; conditions: melanin test not performed because of cytotoxicity

SMILES	IC50 (B-16 melanoma [1]) [µM]	IC50 (α-amylase) [µM]	IC50 (β-amylase) [µM]	further results
OC[C@H]1O[C@@H](Oc2ccc(O)cc2)[C@H](O)[C@@H](O)[C@@H]1O [Albutin, albutin, reference compound]	92	–	–	–
Cc1ccc(S(=O)(=O)Nc2ccc(C(=O)/C=C/c3ccc(O)cc3)cc2)cc1 [Example 2, 4′-(p-toluenesulfonylamino)-4-hydroxychalcone]	14.8	87.8	247	–
O=C(/C=C/c1ccc(O)cc1)c1ccc(NS(=O)(=O)c2ccccc2)cc1 [Example 3, 4′-benzenesulfonylamino-4-hydroxychalcone]	20.6	–	–	–
O=C(/C=C/c1ccc(O)cc1)c1ccc(NS(=O)(=O)c2ccc([N+](=O)[O-])cc2)cc1 [Example 4, 4′-(p-nitrobenzenesulfonylamino)-4-hydroxychalcone]	–	–	–	cytotoxicity of the compounds (B-16 melanoma [2]): ND^a (ND denotes the cases where the experiments on the melanin synthesis inhibitory activities in B-16 melanoma were not performed since the cytotoxicity of the compounds was shown as more than 50%)
O=C(/C=C/c1ccc(O)cc1)c1ccc(NS(=O)(=O)c2ccc(F)cc2)cc1 [Example 5, 4′-(p-fluorobenzenesulfonylamino)-4-hydroxychalcone]	23.7	–	127	IC50 α-amylase (α-amylase): NI^a (NI denotes the cases where the inhibitory rates were below 20% measured when the concentration of the chalcone derivatives was 200 μM or means that there were no inhibitory activities for α-, or β-amylases)
CS(=O)(=O)Nc1ccc(C(=O)/C=C/c2ccc(O)cc2)cc1 [Example 6, 4′-(methanesulfonylamino)-4-hydroxychalcone]	20.3	194	65	–
Nc1ccc(C(=O)/C=C/c2ccc(O)cc2)cc1 [Example 8, 4′-amino-4-hydroxychalcone]	12.5	269	–	IC50 β-amylase (β-amylase): NI (NI denotes the cases where the inhibitory rates were below 20% measured when the concentration of the chalcone derivatives was 200 μM or means that there were no inhibitory activities for α-, or β-amylases)
O=C(/C=C/c1ccc(O)c(O)c1)c1ccc(NS(=O)(=O)c2ccccc2)cc1 [Example 9, 4′-benzenesulfonylamino-3,4-dihydroxychalcone]	–	–	206	IC50 α-amylase (α-amylase): NI (NI denotes the cases where the inhibitory rates were below 20% measured when the concentration of the chalcone derivatives was 200 μM or means that there were no inhibitory activities for α-, or β-amylases)
O=C(/C=C/c1ccc(O)c(O)c1)c1ccc(NS(=O)(=O)c2ccc([N+](=O)[O-])cc2)cc1 [Example 10, 4′-(p-nitrobenzenesulfonylamino)-3,4-dihydroxychalcone]	–	37.3	201	–
O=C(/C=C/c1ccc(O)c(O)c1)c1ccc(NS(=O)(=O)c2ccc(F)cc2)cc1 [Example 11, 4′-(p-fluorobenzenesulfonylamino)-3,4-dihydroxychalcone]	–	–	–	IC50 α-amylase (α-amylase): NI (NI denotes the cases where the inhibitory rates were below 20% measured when the concentration of the chalcone derivatives was 200 μM or means that there were no inhibitory activities for α-, or β-amylases); IC50 β-amylase (β-amylase): NI (NI denotes the cases where the inhibitory rates were below 20% measured when the concentration of the chalcone derivatives was 200 μM or means that there were no inhibitory activities for α-, or β-amylases)
CS(=O)(=O)Nc1ccc(C(=O)/C=C/c2ccc(O)c(O)c2)cc1 [Example 12, 4′-(methanesulfonylamino)-3,4-dihydroxychalcone]	–	16.8	24.8	–
Nc1cccc(C(=O)/C=C/c2ccc(O)cc2)c1 [Example 13, 3′-amino-4-hydroxychalcone]	–	–	–	cytotoxicity of the compounds (B-16 melanoma [2]): ND (ND denotes the cases where the experiments on the melanin synthesis inhibitory activities in B-16 melanoma were not performed since the cytotoxicity of the compounds was shown as more than 50%)
Cc1ccc(S(=O)(=O)Nc2cccc(C(=O)/C=C/c3ccc(O)cc3)c2)cc1 [Example 14, 3′-(p-toluenesulfonylamino)-4-hydroxychalcone]	25.6	–	–	–
O=C(/C=C/c1ccc(O)cc1)c1ccccc1 [Example 17, 4-hydroxychalcone]	–	–	–	cytotoxicity of the compounds (B-16 melanoma [2]): ND (ND denotes the cases where the experiments on the melanin synthesis inhibitory activities in B-16 melanoma were not performed since the cytotoxicity of the compounds was shown as more than 50%)
O=C(/C=C/c1ccc(O)cc1)c1ccc(O)cc1 [Example 18, 4′,4-dihydroxychalcone]	–	–	–	cytotoxicity of the compounds (B-16 melanoma [2]): ND (ND denotes the cases where the experiments on the melanin synthesis inhibitory activities in B-16 melanoma were not performed since the cytotoxicity of the compounds was shown as more than 50%)

From US7851654B2, “Chalcone derivatives, pharmaceutically acceptable salt, method for preparation and uses thereof” (Industry-Academic Cooperation Foundation Gyeongsang …, priority 2006, dated 2010)
